Results published in ChEMBL document CHEMBL6078713, “Synthesis and mechanistic studies of 4-aminoquinoline-Isatin molecular hybrids and Schiff's bases as promising antimicrobial agents” (Eur J Med Chem, 2025).
Values after ≈ are worked out from the molar mass of the structure shown.

What was measured:
Bacillus subtilis [1] = test: Bactericidal activity against Bacillus subtilis MTCC 736 assessed as inhibition of bacterial growth incubated overnight; format: functional
Pseudomonas aeruginosa [2] = test: Bactericidal activity against Pseudomonas aeruginosa MTCC 2453 assessed as inhibition of bacterial growth incubated overnight; format: functional
Salmonella typhi [3] = test: Antibacterial activity against Salmonella typhi assessed as inhibition of bacterial growth incubated overnight by serial dilution based spectrophotometer; format: functional, Salmonella enterica subsp. enterica serovar Typhi; conditions: Salmonella enterica
Enterococcus faecalis [4] = test: Antibacterial activity against Enterococcus faecalis MTCC 439 assessed as inhibition of bacterial growth incubated overnight by serial dilution based spectrophotometer; format: functional
Pseudomonas aeruginosa [5] = test: Antibacterial activity against Pseudomonas aeruginosa MTCC 2453 assessed as diameter of zone of inhibition at 500 ug/ml by agar disk diffusion method; format: functional; conditions: read-out: DIZ
Bacillus subtilis [6] = test: Antibacterial activity against Bacillus subtilis MTCC 736 assessed as inhibition of bacterial growth incubated overnight by serial dilution based spectrophotometer; format: functional
Staphylococcus aureus [7] = test: Antibacterial activity against Staphylococcus aureus MTCC 902 assessed as diameter of zone of inhibition at 500 ug/ml by agar disk diffusion method; format: functional; conditions: read-out: DIZ
Staphylococcus aureus [8] = test: Ratio of MBC for antibacterial activity against Staphylococcus aureus MTCC 902 to MIC for bactericidal activity against Staphylococcus aureus MTCC 902; format: functional
Staphylococcus aureus [9] = test: Antibacterial activity against Staphylococcus aureus MTCC 902 assessed as inhibition of bacterial growth incubated overnight by serial dilution based spectrophotometer; format: functional
Escherichia coli [10] = test: Antibacterial activity against Escherichia coli MTCC 443 assessed as inhibition of bacterial growth incubated overnight by serial dilution based spectrophotometer; format: functional
Pseudomonas aeruginosa [11] = test: Antibacterial activity against Pseudomonas aeruginosa MTCC 2453 assessed as inhibition of bacterial growth incubated overnight by serial dilution based spectrophotometer; format: functional
Escherichia coli [12] = test: Antibacterial activity against Escherichia coli MTCC 443 assessed as diameter of zone of inhibition at 500 ug/ml by agar disk diffusion method; format: functional; conditions: read-out: DIZ
Staphylococcus aureus [13] = test: Bactericidal activity against Staphylococcus aureus MTCC 902 assessed as inhibition of bacterial growth incubated overnight; format: functional
Bacillus subtilis [14] = test: Antibacterial activity against Bacillus subtilis MTCC 736 assessed as diameter of zone of inhibition at 500 ug/ml by agar disk diffusion method; format: functional; conditions: read-out: DIZ
Escherichia coli [15] = test: Bactericidal activity against Escherichia coli MTCC 443 assessed as inhibition of bacterial growth incubated overnight; format: functional
Enterococcus faecalis [16] = test: Antibacterial activity against Enterococcus faecalis MTCC 439 assessed as diameter of zone of inhibition at 500 ug/ml by agar disk diffusion method; format: functional; conditions: read-out: DIZ
Salmonella typhi [17] = test: Antibacterial activity against Salmonella typhi assessed as diameter of zone of inhibition at 500 ug/ml by agar disk diffusion method; format: functional, Salmonella enterica subsp. enterica serovar Typhi; conditions: Salmonella enterica, read-out: DIZ
Enterococcus faecalis [18] = test: Bactericidal activity against Enterococcus faecalis MTCC 439 assessed as inhibition of bacterial growth incubated overnight; format: functional
Bacillus subtilis [19] = test: Ratio of MBC for antibacterial activity against Bacillus subtilis MTCC 736 to MIC for bactericidal activity against Bacillus subtilis MTCC 736; format: functional
Escherichia coli [20] = test: Ratio of MBC for antibacterial activity against Escherichia coli MTCC 443 to MIC for bactericidal activity against Escherichia coli MTCC 443; format: functional
Enterococcus faecalis [21] = test: Ratio of MBC for antibacterial activity against Enterococcus faecalis MTCC 439 to MIC for bactericidal activity against Enterococcus faecalis MTCC 439; format: functional

Compound | zone of inhibition at 500 µg/mL (Pseudomonas aeruginosa [5]) | zone of inhibition at 500 µg/mL (Staphylococcus aureus [7]) | zone of inhibition at 500 µg/mL (Escherichia coli [12]) | zone of inhibition at 500 µg/mL (Bacillus subtilis [14]) | zone of inhibition at 500 µg/mL (Enterococcus faecalis [16]) | zone of inhibition at 500 µg/mL (Salmonella typhi [17]) | other results
Cc1cccc2c1NC(=O)/C2=N\CCNc1ccnc2cc(Cl)ccc12 | 12 mm | 11 mm | 11 mm | 12 mm | – | – | MBC (Bacillus subtilis [1]): > 512 µg/mL; MBC (Pseudomonas aeruginosa [2]): > 512 µg/mL; MIC (Salmonella typhi [3]): > 512 µg/mL; MIC (Enterococcus faecalis [4]): > 512 µg/mL; MIC (Bacillus subtilis [6]): 256 µg/mL (≈ 702 µM); Ratio (Staphylococcus aureus [8]): 1; MIC (Staphylococcus aureus [9]): 256 µg/mL (≈ 702 µM); MIC (Escherichia coli [10]): 256 µg/mL (≈ 702 µM); MIC (Pseudomonas aeruginosa [11]): 256 µg/mL (≈ 702 µM); MBC (Staphylococcus aureus [13]): 256 µg/mL (≈ 702 µM); MBC (Escherichia coli [15]): > 512 µg/mL
Clc1ccc(/C=N/CCNc2ccnc3cc(Cl)ccc23)cc1 | 7 mm | – | 6 mm | 7 mm | 6 mm | 6 mm | –
Clc1ccc2c(NCC/N=C/c3ccccc3)ccnc2c1 | 8 mm | 8 mm | 10 mm | 7 mm | 8 mm | 6 mm | –
COc1ccc2c(c1)/C(=N/CCNc1ccnc3cc(Cl)ccc13)C(=O)N2 | 11 mm | – | – | – | 10 mm | – | –
Cc1cc(C)c2c(c1)/C(=N/CCNc1ccnc3cc(Cl)ccc13)C(=O)N2 | – | 6 mm | 11 mm | – | – | – | –
O=C1Nc2c(cccc2[N+](=O)[O-])/C1=N/CCNc1ccnc2cc(Cl)ccc12 | – | 8 mm | – | 11 mm | – | – | –
Clc1ccc2c(NCC/N=C/c3ccc[nH]3)ccnc2c1 | 7 mm | 10 mm | 9 mm | 9 mm | 8 mm | 9 mm | MBC (Enterococcus faecalis [18]): 512 µg/mL (≈ 1710 µM); MBC (Bacillus subtilis [1]): 512 µg/mL (≈ 1710 µM); MIC (Salmonella typhi [3]): > 512 µg/mL; MIC (Enterococcus faecalis [4]): 512 µg/mL (≈ 1710 µM); MIC (Bacillus subtilis [6]): 512 µg/mL (≈ 1710 µM); Ratio (Bacillus subtilis [19]): 1; MIC (Staphylococcus aureus [9]): 512 µg/mL (≈ 1710 µM); MIC (Escherichia coli [10]): 256 µg/mL (≈ 857 µM); MIC (Pseudomonas aeruginosa [11]): > 512 µg/mL; Ratio (Escherichia coli [20]): 2; MBC (Staphylococcus aureus [13]): > 512 µg/mL; Ratio (Enterococcus faecalis [21]): 1; MBC (Escherichia coli [15]): 512 µg/mL (≈ 1710 µM)
O=C1Nc2ccccc2/C1=N/CCNc1ccnc2cc(Cl)ccc12 | – | – | 11 mm | 10 mm | – | – | –
Clc1ccc2c(NCC/N=C/c3c[nH]c4ccccc34)ccnc2c1 | 7 mm | 8 mm | 10 mm | 8 mm | 9 mm | 9 mm | –
Cc1ccc(/C=N/CCNc2ccnc3cc(Cl)ccc23)cc1 | 8 mm | 6 mm | 8 mm | – | 6 mm | 6 mm | –
O=[N+]([O-])c1cccc(/C=N/CCNc2ccnc3cc(Cl)ccc23)c1 | 6 mm | 8 mm | 9 mm | 6 mm | 8 mm | 9 mm | –
COc1cc(/C=N/CCNc2ccnc3cc(Cl)ccc23)ccc1O | 7 mm | 6 mm | 9 mm | – | 7 mm | 6 mm | –
O=C1Nc2cc(F)ccc2/C1=N/CCNc1ccnc2cc(Cl)ccc12 | – | 7 mm | – | – | – | 7 mm | –
